These results are taken from PMC10480608 (Heliyon, 2023).

SMILES strings stand for the structures. Where two headings read alike, the source gives them in different places. Some results are limits rather than exact numbers.

In data set [1] the test system is MCF-7 (human breast adenocarcinoma). In words: MTT cytotoxicity assay, MCF-7. The data set is classed as cell-based. As to conditions: read-out: IC50 ± SD, MCF7.
The subject of data set [2] is MDA-231 breast cancer cells. In words: MTT cytotoxicity assay, MDA-231. It is filed as cell-based, human. Background: Tetrazolium dyes change colour on reduction, which living cells bring about.
Data set [3] has as its system HepG2 (hepatocellular carcinoma). The experiment in a line: MTT cytotoxicity assay, HepG2. The data set is classed as cell-based, human. Particulars: read-out: IC50 ± SD, HEPG-2.
The test system of data set [4] is DU145 prostate cancer cells. The experiment in a line: MTT cytotoxicity assay, DU145. The data set is classed as cell-based, human.
For data set [5], the system named is normal human dermal/fibroblasts. In words: MTT cytotoxicity assay, normal fibroblasts. It is filed as cell-based. Particulars: read-out: IC50 ± SD, Fibro dental, 72 h.
The test system of data set [6] is PC3 (human prostate carcinoma). In words: MTT cytotoxicity assay, PC3. The data set is classed as cell-based. Particulars: 72 h, read-out: IC50 ± SD, PC-3.
The subject of another data set is MCF-7 cell lines. In words: Dose response study, growth rate. The data set is classed as cell-based, human. As to conditions: MCF-7, treatment for 24 h, tested 1–300 μg/mL.
Where [7] appears, read: Homo sapiens, MDA-MB-231, read-out: IC50 ± SD, MDA-231.
Setting [8] is: Homo sapiens, DU-145, read-out: IC50 ± SD, DU145.

One may read the IC50 as the concentration at which inhibition is half-maximal. Turning to `N.N.[Cl][Pt][Cl]` [Cisplatin, reference compound], the half-inhibitory concentration (IC50) is 14.6 ± 2.8 µM in data set [1] (Breast cancer cells, MTT, 72 h, mean ± SD); 16.2 ± 1.6 µM in data set [2] (read-out: IC50 ± SD, MDA-231, Breast cancer cells, MTT, mean ± SD); 9.64 ± 1.7 µM in data set [3] (Liver cancer cells, MTT, 72 h, mean ± SD); 8.5 ± 1.7 µM in data set [4] (read-out: IC50 ± SD, DU145, Prostate cancer cells, MTT, mean ± SD); over 100 µM in data set [5] (Normal cells, MTT, mean ± SD).

Consider `Cc1nc([N+](=O)[O-])c(N2CCN(Cc3cn(Cc4ccc(F)cc4)nn3)CC2)n1Cc1ccccc1` [Compound 9c, 1-(N1-benzyl-2-methyl-4-nitro-imidazole-5-yl)-4-((N1-(4-fluorobenzyl)-1H-1,2,3-triazol-4-yl)methyl)piperazine], for which the IC50 in data set [1] (Homo sapiens, MCF7, 72 h) is 24 ± 1.9 µM; in data set [3] (Homo sapiens, HepG2, 72 h), over 500 µM; in data set [6], over 500 µM; in data set [5] (Homo sapiens, Fibroblast), over 500 µM.

With `Cc1cccc(Cn2cc(CN3CCN(c4c([N+](=O)[O-])nc(C)n4Cc4ccccc4)CC3)nn2)c1` [Compound 9e, 1-(N1-benzyl-2-methyl-4-nitro-imidazole-5-yl)-4-((N1-(3-methylbenzyl)-1H-1,2,3-triazol-4-yl)methyl)piperazine], the IC50 in data set [1] (Homo sapiens, MCF7, 72 h) was 79 ± 21 µM; in data set [3] (Homo sapiens, HepG2, 72 h) it was over 500 µM; in data set [6], over 500 µM; in data set [5] (Homo sapiens, Fibroblast) it was over 500 µM.

Regarding `Cc1nc([N+](=O)[O-])c(N2CCN(Cc3cn(Cc4cccc(F)c4)nn3)CC2)n1Cc1ccccc1` [Compound 9g, 1-(N1-benzyl-2-methyl-4-nitro-imidazole-5-yl)-4-((N1-(3-fluorobenzyl)-1H-1,2,3-triazol-4-yl)methyl)piperazine], the IC50 in data set [1] (Homo sapiens, MCF7, 72 h) was 2 ± 0.03 µM. Besides, the IC50 in data set [5] (Homo sapiens, Fibroblast) was over 500 µM. Also, in the data set with MCF-7 cell lines, the “concentration range with cytostatic effect (GR values)” value was 1 to 300 µg/mL and the “concentration range with cytotoxic effect (GR values)” value was “did not show cytotoxic effects”.

`Cc1nc([N+](=O)[O-])c(N2CCN(Cc3cn(Cc4ccccc4Br)nn3)CC2)n1Cc1ccccc1` [Compound 9i, 1-(N1-benzyl-2-methyl-4-nitro-imidazole-5-yl)-4-((N1-(2-bromobenzyl)-1H-1,2,3-triazol-4-yl)methyl)piperazine]: the IC50 is 106 ± 12.3 µM in data set [1] (Homo sapiens, MCF7, 72 h); over 500 µM in data set [3] (Homo sapiens, HepG2, 72 h); over 500 µM in data set [6]; over 500 µM in data set [5] (Homo sapiens, Fibroblast).

Take `Cc1nc([N+](=O)[O-])c(N2CCN(Cc3cn(Cc4ccccc4F)nn3)CC2)n1Cc1ccccc1` [Compound 9j, 1-(N1-benzyl-2-methyl-4-nitro-imidazole-5-yl)-4-((N1-(2-fluorobenzyl)-1H-1,2,3-triazol-4-yl)methyl)piperazine]: the half-maximal inhibitory concentration (IC50) in data set [1] (Homo sapiens, MCF7, 72 h) is 151 ± 20 µM; in data set [3] (Homo sapiens, HepG2, 72 h) it was over 500 µM; in data set [6], over 500 µM; in data set [5] (Homo sapiens, Fibroblast) it was over 500 µM.

For `Cc1ccc(Cn2cc(CN3CCN(c4c([N+](=O)[O-])nc(C)n4Cc4ccccc4)CC3)nn2)cc1` [Compound 9k, 1-(N1-benzyl-2-methyl-4-nitro-imidazole-5-yl)-4-((N1-(4-methylbenzyl)-1H-1,2,3-triazol-4-yl)methyl)piperazine], the half-maximal inhibitory concentration (IC50) in data set [1] (Homo sapiens, MCF7, 72 h) is 5 ± 2 µM. The IC50 in data set [5] (Homo sapiens, Fibroblast) was over 500 µM. In addition, in the data set on MCF-7 cell lines, the “concentration range with cytostatic effect (GR values)” value is 37.5 to 1 μg/mL and the “concentration range with cytotoxic effect (GR values)” value fell in the range of 75 to 300 µg/mL.

Take `Cc1nc([N+](=O)[O-])c(N2CCN(Cc3cn(CC(=O)c4ccccc4)nn3)CC2)n1Cc1ccccc1` [Compound 10a, 2-(4-((4-(1-benzyl-2-methyl-4-nitro-1H-imidazole-5-yl)piperazin-1-yl)methyl)-1H-1,2,3-triazol-1-yl)-1-phenylethanone]: the IC50 in data set [1] (Homo sapiens, MCF7, 72 h) came out at 112 ± 30 µM; in data set [2] (setting [7]), 1.15 ± 0.5 µM; in data set [4] (setting [8]) it was 3.16 ± 0.03 µM.

As for `Cc1nc([N+](=O)[O-])c(N2CCN(Cc3cn(CC(=O)c4ccc(Br)cc4)nn3)CC2)n1Cc1ccccc1` [Compound 10b, 2-(4-((4-(1-benzyl-2-methyl-4-nitro-1H-imidazole-5-yl)piperazin-1-yl)methyl)-1H-1,2,3-triazol-1-yl)-1-(4-bromophenyl)ethanone], the 50% inhibitory concentration (IC50) in data set [1] (Homo sapiens, MCF7, 72 h) came to 372 ± 30 µM; in data set [2] (setting [7]), 1.33 ± 0.9 µM; in data set [4] (setting [8]) it was 8.95 ± 1.7 µM.

Consider `COc1cccc(C(=O)Cn2cc(CN3CCN(c4c([N+](=O)[O-])nc(C)n4Cc4ccccc4)CC3)nn2)c1` [Compound 10c, 2-(4-((4-(1-benzyl-2-methyl-4-nitro-1H-imidazole-5-yl)piperazin-1-yl)methyl)-1H-1,2,3-triazol-1-yl)-1-(3-methoxyphenyl)ethanone], for which the half-maximal inhibitory concentration (IC50) in data set [1] (Homo sapiens, MCF7, 72 h) was 585 ± 37 µM; in data set [2] (setting [7]) it was 1.38 ± 1.3 µM; in data set [4] (setting [8]) it was 15 ± 1.6 µM; in data set [5] (Homo sapiens, Fibroblast) it was over 500 µM.

As for `Cc1cccc(-n2cc(CN3CCN(c4c([N+](=O)[O-])nc(C)n4Cc4ccccc4)CC3)nn2)c1` [Compound 11 m, 1-(N1-benzyl-2-methyl-4-nitro-1H-imidazole-5-yl)-4-((N1-(m-tolyl)-1H-1,2,3-triazol-4-yl)methyl)piperazine], the IC50 is 161 ± 16 µM in data set [1] (Homo sapiens, MCF7, 72 h); over 500 µM in data set [3] (Homo sapiens, HepG2, 72 h); over 500 µM in data set [6]; over 500 µM in data set [5] (Homo sapiens, Fibroblast).

Consider `Cc1nc([N+](=O)[O-])c(N2CCN(Cc3cn(-c4ccc(Cl)cc4)nn3)CC2)n1Cc1ccccc1` [Compound 11j, 1-(N1-benzyl-2-methyl-4-nitro-1H-imidazole-5-yl)-4-((N1-(4-chlorophenyl)-1H-1,2,3-triazol-4-yl)methyl)piperazine], for which the 50% inhibitory concentration (IC50) in data set [1] (Homo sapiens, MCF7, 72 h) was 279 ± 20 µM; in data set [3] (Homo sapiens, HepG2, 72 h), over 500 µM; in data set [6] it was over 500 µM; in data set [5] (Homo sapiens, Fibroblast), over 500 µM.

Consider `Cc1nc([N+](=O)[O-])c(N2CCN(Cc3cn(-c4ccc5c(c4)OCO5)nn3)CC2)n1Cc1ccccc1` [Compound 11p, 1-((N1-(benzo[d] [1,3]dioxol-5-yl)-1H-1,2,3-triazol-4-yl)methyl)-4-(N1-benzyl-2-methyl-4-nitro-1H-imidazole-5-yl) piperazine], for which the IC50 in data set [1] (Homo sapiens, MCF7, 72 h) is 52 ± 30 µM; in data set [2] (setting [7]) it was 11.7 ± 1.6 µM; in data set [4] (setting [8]), 0.803 ± 0.04 µM.

For the compound `COc1cccc2c1C(=O)c1c(O)c3c(c(O)c1C2=O)C[C@@](O)(C(=O)CO)C[C@@H]3O[C@H]1C[C@H](N)[C@H](O)[C@H](C)O1` [Doxorubicin, reference compound], the IC50 is 0.64 ± 0.04 µM in data set [1] (Homo sapiens, MCF7, 72 h); 2.3 ± 1.3 µM in data set [2] (setting [7]); 0.61 ± 0.05 µM in data set [3] (Homo sapiens, HepG2, 72 h); 0.62 ± 0.06 µM in data set [6]; 0.66 ± 0.04 µM in data set [4] (setting [8]); over 100 µM in data set [5] (Homo sapiens, Fibroblast).
